≈ marks a conversion by molar mass, not a printed value. Where two headings read alike, the source gives them in different places.
Legend:
[1] = system: H. influenza Hi106 ATCC 51907; experiment: organism not typed; assay type: cell-based; settings: read-out: MIC Hi106
DNA III Polymerase E = DNA III Polymerase E (Escherichia coli, UniProt P10443); experiment: In vitro activity against DNA III Polymerase E, E. coli; assay type: biochemical
Method: A radioactive filterplate assay was used to assess inhibitory activity of compounds on DNA Polymerase IIIα. Five μL of a dilution series of compound, starting from 100 μM highest concentration, 1/5 dilution, was added to the wells of a 96 well plate. Recombinant enzyme was diluted to 0.47 μg/mL in a buffer containing 20 mM Tris pH7.5, 8 mM DTT, 10 mM MgOAc, 0.05% CHAPS and 10 μL thereof was added to the compound dilutions. The reaction was started with the addition of 10 μL substrate in the same buffer, containing activated calf thymus DNA (Sigma, D4522), dATP, dGTP, dCTP, dTTP (Invitrogen) and [α-33P]-dTTP (Perkin Elmer, NEG605H001) at a concentration of 62.5 μg/mL, 50 nM and 7.5 μCi/mL respectively. The mixture was incubated at 30° C. for 120 minutes and terminated by addition of phosphoric acid. Samples were transferred to filter plates and incorporated radioactivity was measured by the Topcount. Data were converted to percent inhibition with respect to positive and negative controls. IC50 values were calculated using Graph Prism™ software.

S. aureus Sa1 ATCC 13709 = experiment: microbe, parasite or virus in culture; assay type: cell-based; settings: Staphylococcus aureus
[2] = system: H. influenza Hi3 ATCC 31517; experiment: organism not typed; assay type: cell-based; settings: read-out: MIC Hi3
S. aureus Sa4 NCTC 6571 = experiment: Antibacterial activity assay (MIC), S. aureus Sa4; assay type: cell-based; settings: Staphylococcus aureus
[3] = system: E. coli Ec113 efflux pump KO; experiment: microbe, parasite or virus in culture; assay type: cell-based; settings: Escherichia coli, read-out: MIC Ec113 efflux pump KO
[4] = system: E. coli Ec50 efflux pump KO; experiment: microbe, parasite or virus in culture; assay type: cell-based; settings: Escherichia coli, read-out: MIC Ec50 efflux pump KO
[5] = system: H. influenza Hi47 clinical strain, Ampicillin Resistant; experiment: organism not typed; assay type: cell-based; settings: read-out: MIC Hi47
E. coli Ec1 ATCC 25922 = experiment: Antibacterial activity assay (MIC), E. coli Ec1; assay type: cell-based; settings: Escherichia coli
[6] = biological target: DNA Polymerase IIIα (DnaE) from Staphylococcus aureus (Staphylococcus aureus, UniProt Q6GG04); experiment: biochemical
[7] = system: S. aureus Sa2 clinical strain NCIMB 41953, MRSA; experiment: microbe, parasite or virus in culture; assay type: cell-based; settings: Staphylococcus aureus, read-out: MIC Sa2
[8] = system: S. aureus Sa26 ATCC 25923; experiment: Antibacterial activity assay (MIC), S. aureus Sa26; assay type: cell-based; settings: Staphylococcus aureus
[9] = system: H. influenza Hi10 clinical strain; experiment: organism not typed; assay type: cell-based; settings: read-out: MIC Hi10
[10] = DNA polymerase III, E. coli, read-out: IC50 semiquantitative scoring, E. coli
[11] = ATCC25923, read-out: MIC Sa26 + 10% SH
[12] = ATCC25923, read-out: MIC Sa26 + 50% SH
[13] = ATCC13709, S. aureus Sa1 ATCC 13709, sensitive strain, Mueller-Hinton Broth, 37° C., read-out: MIC Sa1
[14] = NCTC6571, S. aureus Sa4 NCTC 6571, sensitive strain, read-out: MIC Sa4
[15] = ATCC25922, E. coli Ec1 ATCC 25922, sensitive strain, read-out: MIC Ec1
[16] = ATCC25923, read-out: MIC Sa26 + 10% SH, S. aureus Sa26 + 10% SH
[17] = ATCC25923, read-out: MIC Sa26 + 50% SH, S. aureus Sa26 + 50% SH
[18] = ATCC25923, S. aureus Sa26 ATCC 25923, sensitive strain, Mueller-Hinton Broth, 37° C., read-out: MIC Sa26

Chain of DNA III Polymerase E (P10443 whole entry): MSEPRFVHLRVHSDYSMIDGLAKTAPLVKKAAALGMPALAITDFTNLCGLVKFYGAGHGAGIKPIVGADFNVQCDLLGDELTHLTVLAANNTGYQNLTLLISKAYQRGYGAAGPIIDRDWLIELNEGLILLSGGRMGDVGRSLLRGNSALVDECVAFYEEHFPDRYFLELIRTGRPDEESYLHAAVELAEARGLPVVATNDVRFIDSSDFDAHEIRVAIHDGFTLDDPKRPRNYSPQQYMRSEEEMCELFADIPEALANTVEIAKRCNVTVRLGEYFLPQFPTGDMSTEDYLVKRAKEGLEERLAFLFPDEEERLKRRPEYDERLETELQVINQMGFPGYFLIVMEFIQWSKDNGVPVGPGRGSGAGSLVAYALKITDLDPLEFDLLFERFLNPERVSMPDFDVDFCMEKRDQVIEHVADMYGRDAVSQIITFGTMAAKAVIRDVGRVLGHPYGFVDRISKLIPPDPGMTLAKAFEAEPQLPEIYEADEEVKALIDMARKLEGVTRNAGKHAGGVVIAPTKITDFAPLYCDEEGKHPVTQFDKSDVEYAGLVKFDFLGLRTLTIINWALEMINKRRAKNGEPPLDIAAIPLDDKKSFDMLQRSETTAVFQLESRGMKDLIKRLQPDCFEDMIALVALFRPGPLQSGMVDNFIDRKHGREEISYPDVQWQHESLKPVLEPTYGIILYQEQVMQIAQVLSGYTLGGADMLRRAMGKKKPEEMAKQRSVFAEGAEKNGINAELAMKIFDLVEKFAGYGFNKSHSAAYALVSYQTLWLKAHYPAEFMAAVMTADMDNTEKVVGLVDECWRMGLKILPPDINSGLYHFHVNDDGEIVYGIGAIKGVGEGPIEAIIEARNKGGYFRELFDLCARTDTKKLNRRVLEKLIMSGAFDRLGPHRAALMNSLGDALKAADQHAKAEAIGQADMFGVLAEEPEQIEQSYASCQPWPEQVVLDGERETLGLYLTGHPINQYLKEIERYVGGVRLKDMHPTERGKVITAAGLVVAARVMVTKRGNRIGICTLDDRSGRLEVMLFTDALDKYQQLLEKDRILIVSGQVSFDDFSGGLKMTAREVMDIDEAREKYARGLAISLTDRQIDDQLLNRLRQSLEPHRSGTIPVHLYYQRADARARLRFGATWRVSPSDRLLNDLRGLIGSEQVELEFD
Chain of DNA Polymerase IIIα (DnaE) from Staphylococcus aureus (Q6GG04 1-1022): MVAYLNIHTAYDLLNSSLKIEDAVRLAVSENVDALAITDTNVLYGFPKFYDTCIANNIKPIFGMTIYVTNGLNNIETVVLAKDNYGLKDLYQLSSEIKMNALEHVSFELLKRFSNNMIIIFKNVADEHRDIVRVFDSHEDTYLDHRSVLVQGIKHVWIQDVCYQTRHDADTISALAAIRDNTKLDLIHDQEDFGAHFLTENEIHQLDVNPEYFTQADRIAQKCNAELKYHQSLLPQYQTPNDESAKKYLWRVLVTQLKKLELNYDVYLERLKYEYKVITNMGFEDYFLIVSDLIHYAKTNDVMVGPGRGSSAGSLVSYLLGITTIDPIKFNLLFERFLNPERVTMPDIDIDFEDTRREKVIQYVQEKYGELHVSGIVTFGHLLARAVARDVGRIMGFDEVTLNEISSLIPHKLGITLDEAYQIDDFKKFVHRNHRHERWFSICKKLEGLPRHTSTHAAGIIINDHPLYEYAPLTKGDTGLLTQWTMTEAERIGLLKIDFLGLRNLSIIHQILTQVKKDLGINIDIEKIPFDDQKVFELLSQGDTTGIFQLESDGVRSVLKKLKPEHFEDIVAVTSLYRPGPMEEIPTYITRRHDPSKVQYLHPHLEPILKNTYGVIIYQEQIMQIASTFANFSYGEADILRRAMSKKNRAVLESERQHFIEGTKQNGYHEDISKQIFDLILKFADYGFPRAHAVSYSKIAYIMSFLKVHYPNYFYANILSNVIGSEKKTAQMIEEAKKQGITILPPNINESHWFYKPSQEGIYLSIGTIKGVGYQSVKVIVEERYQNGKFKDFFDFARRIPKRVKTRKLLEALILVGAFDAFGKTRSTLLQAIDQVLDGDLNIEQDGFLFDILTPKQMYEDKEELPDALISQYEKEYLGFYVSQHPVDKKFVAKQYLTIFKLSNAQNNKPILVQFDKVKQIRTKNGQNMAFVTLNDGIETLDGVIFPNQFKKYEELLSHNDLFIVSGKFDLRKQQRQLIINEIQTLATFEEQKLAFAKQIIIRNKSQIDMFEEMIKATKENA

Structure (SMILES) | MIC [1] [µg/mL] | IC50 (DNA III Polymerase E; [10]) [nM] | MIC (S. aureus Sa1 ATCC 13709; ATCC13709, read-out: MIC Sa1) [µg/mL] | MIC [2] [µg/mL] | MIC (S. aureus Sa4 NCTC 6571; NCTC6571, read-out: MIC Sa4) [µg/mL] | MIC [3] [µg/mL] | MIC [4] [µg/mL] | MIC [5] [µg/mL] | MIC (E. coli Ec1 ATCC 25922; ATCC25922, read-out: MIC Ec1) [µg/mL] | IC50 [6] [nM] | MIC [7] [µg/mL] | MIC ([8]; ATCC25923, read-out: MIC Sa26) [µg/mL] | MIC [8, 11] [µg/mL] | MIC [8, 12] [µg/mL] | MIC [9] [µg/mL] | MIC (S. aureus Sa1 ATCC 13709; [13]) [µg/mL] | MIC (S. aureus Sa4 NCTC 6571; [14]) [µg/mL] | MIC (E. coli Ec1 ATCC 25922; [15]) [µg/mL] | MIC [8, 16] [µg/mL] | MIC [8, 17] [µg/mL] | further results
COC[C@@H]1[C@@H](O)[C@@H]2[C@H]3C=C[C@@H]4[C@@H](COC)C(=O)O[C@H]([C@@H](COC)OC)[C@H](C)/C=C(\C)[C@@]24O[C@H]3[C@@H]1OC(=O)c1ccc[nH]1 [Compound 18, 17-O-Methyl-8-O-1H-pyrrole-2′-carbonylbranimycin] | > 64 | 1700 to 17000 | 1 (≈ 1.7 µM) | > 64 | 1 (≈ 1.7 µM) | 2 (≈ 3.39 µM) | > 64 | > 64 | > 64 | 1.7 to 1700 | 1 (≈ 1.7 µM) | 1 (≈ 1.7 µM) | 1 | 2 | > 64 | – | – | – | – | – | –
COCC(=O)[C@H]1OC(=O)[C@H](COC)[C@H]2C=C[C@H]3[C@H]4O[C@]2(/C(C)=C/[C@H]1C)[C@@H]3[C@H](O)[C@@H](COC)[C@H]4OC(=O)c1ccc[nH]1 [Compound 20, 18-Deoxy-18-oxo-8-O-1H-pyrrole-2′-carbonylbranimycin] | > 64 | > 17400 | 8 (≈ 13.9 µM) | > 64 | 4 (≈ 6.97 µM) | 16 (≈ 27.9 µM) | > 64 | > 64 | > 64 | 1.74 to 1740 | 2 (≈ 3.49 µM) | 8 (≈ 13.9 µM) | 16 | 32 | > 64 | – | – | – | – | – | –
COC[C@@H]1[C@@H](O)[C@@H]2[C@H]3C=C[C@@H]4[C@@H](COC)C(=O)OC[C@H](C)/C=C(\C)[C@@]24O[C@H]3[C@@H]1OC(=O)c1ccc[nH]1 [Compound 22, 17,18-Dinor-8-O-1H-pyrrole-2′-carbonybranimycin] | > 64 | – | – | > 64 | – | 8 (≈ 15.9 µM) | > 64 | > 64 | – | 1.99 to 1990 | 4 (≈ 7.97 µM) | – | – | – | > 64 | 4 (≈ 7.97 µM) | 2 (≈ 3.99 µM) | > 64 | 4 | 8 | IC50 (DNA III Polymerase E): > 19900 nM; MIC [8, 18]: 4 µg/mL (≈ 7.97 µM)
COC[C@@H]1[C@@H](O)[C@@H]2[C@H]3C=C[C@@H]4[C@@H](COC)C(=O)O[C@H](C(C)(O)COC)[C@H](C)/C=C(\C)[C@@]24O[C@H]3[C@@H]1OC(=O)c1ccc[nH]1 (stereo partly drawn) [Compound 24, 17-Methyl-8-O-1H-pyrrole-2′-carbonylbranimycin] | > 64 | – | – | > 64 | – | 2 (≈ 3.39 µM) | 1 (≈ 1.7 µM) | > 64 | – | 1.7 to 1700 | 2 (≈ 3.39 µM) | – | – | – | > 64 | 4 (≈ 6.78 µM) | 2 (≈ 3.39 µM) | > 64 | 4 | 4 | IC50 (DNA III Polymerase E): > 17000 nM; MIC [8, 18]: 4 µg/mL (≈ 6.78 µM)
COC[C@@H]1[C@@H](O)[C@@H]2[C@H]3C=C[C@@H]4[C@@H](COC)C(=O)O[C@H]([C@H](O)COC)[C@H](C)/C=C(\C)[C@@]24O[C@H]3[C@@H]1OC(=O)c1cc(C#N)c[nH]1 [Compound 26, 8-O-4-Cyano-1H-pyrrole-2′-carbonylbranimycin] | > 128 | 1660 to 16600 | 64 (≈ 107 µM) | > 128 | 64 (≈ 107 µM) | 4 (≈ 6.66 µM) | 2 (≈ 3.33 µM) | > 128 | > 128 | 1.66 to 1660 | 64 (≈ 107 µM) | 128 (≈ 213 µM) | 128 | 64 | > 128 | – | – | – | – | – | –
COCC(=NO)[C@H]1OC(=O)[C@H](COC)[C@H]2C=C[C@H]3[C@H]4O[C@]2(/C(C)=C/[C@H]1C)[C@@H]3[C@H](O)[C@@H](COC)[C@H]4OC(=O)c1cc(F)c[nH]1 [Compound 40, 18-Deoxy-18-oximino-8-O-4-Fluoro-1H-pyrrole-2′-carbonylbranimycin] | > 64 | 1.65 to 1650 | – | > 64 | – | 0.25 (≈ 0.412 µM) | 16 (≈ 26.4 µM) | > 64 | – | 1.65 to 1650 | 0.25 (≈ 0.412 µM) | – | – | – | 64 (≈ 105 µM) | 0.25 (≈ 0.412 µM) | 0.12 (≈ 0.198 µM) | > 64 | 1 | 1 | MIC [8, 18]: 1 µg/mL (≈ 1.65 µM)
COC[C@@H]1[C@@H](O)[C@@H]2[C@H]3C=C[C@@H]4C[C@H](O)C(=O)O[C@H]([C@H](O)COC)[C@H](C)/C=C(\C)[C@@]24O[C@H]3[C@@H]1OC(=O)c1ccc[nH]1 [Nargenicin B1, reference compound] | > 64 | > 17800 | 1 (≈ 1.78 µM) | > 64 | 0.5 (≈ 0.89 µM) | 2 (≈ 3.56 µM) | 16 (≈ 28.5 µM) | > 64 | > 64 | 1.78 to 1780 | 0.5 (≈ 0.89 µM) | 2 (≈ 3.56 µM) | 2 | 1 | > 64 | – | – | – | – | – | –
CO[C@H]1C[C@H]2C=C[C@H]3[C@H]4O[C@]2(/C(C)=C/[C@@H](C)[C@@H]([C@@H](C)O)OC1=O)[C@@H]3[C@H](O)[C@@H](C)[C@H]4O [Nodusmicin, reference compound] | 64 (≈ 151 µM) | 2370 to 23700 | > 64 | 64 (≈ 151 µM) | > 64 | 0.25 (≈ 0.592 µM) | 1 (≈ 2.37 µM) | 32 (≈ 75.7 µM) | > 64 | 2.37 to 2370 | > 64 | > 64 | > 64 | > 64 | 64 (≈ 151 µM) | – | – | – | – | – | –

Reference: US20160297830A1, “NOVEL COMPOUNDS USEFUL FOR THE TREATMENT OF BACTERIAL INFECTIOUS DISEASES” (GALAPAGOS NV, priority 2013, published 2016)
